Key:
corn = assay: Test B pre/postemergence corn; assay type: in vivo, Zea mays
In short: (§1)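 Test chemicals in a non-phytotoxic solvent mixture with surfactant were sprayed preemergence onto planted seeds and postemergence onto plants 2 to 18 cm tall (1- to 4-leaf stage). After twelve to sixteen days in a greenhouse, injury was visually rated against untreated controls from 0 (no effect) to 10 (complete control).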

giant foxtail = assay: Test B pre/postemergence giant foxtail; assay type: in vivo, Setaria faberii
In short: as §1

purple nutsedge = assay: Test B pre/postemergence purple nutsedge; assay type: in vivo, Cyperus rotundus
In short: as §1

surinam grass = assay: Test B pre/postemergence surinam grass; assay type: in vivo, Brachiaria decumbens
In short: as §1

bamyardgrass = assay: Test B flood test barnyardgrass; assay type: in vivo, Echinochloa crus-galli
In short: (§2)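 Read-out is a visual response score from 0 (no effect) to 10 (complete control), assigned by comparison with untreated controls. Treatment was applied at the 2-leaf stage, and plants stayed in the greenhouse for twelve to sixteen days before scoring.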

sugar beet = assay: Test B pre/postemergence sugar beet; assay type: in vivo, Beta vulgaris
In short: as §1

duck salad = assay: Test B flood test duck salad; assay type: in vivo, Heteranthera limosa
In short: as §2

morningglory = assay: Test B pre/postemergence morningglory; assay type: in vivo, Ipomoea hederacea
In short: as §1

velvetleaf = assay: Test B pre/postemergence velvetleaf; assay type: in vivo, Abutilon theophrasti
In short: as §1

bedstraw = assay: Test B pre/postemergence bedstraw; assay type: in vivo, Galium aparine
In short: as §1

rice = assay: Test B flood test rice; assay type: in vivo, Oryza sativa
In short: as §2

blackgrass = assay: Test B pre/postemergence blackgrass; assay type: in vivo, Alopecurus myosuroides
In short: as §1

pigweed = assay: Test B pre/postemergence pigweed; assay type: in vivo, Amaranthus retroflexus
In short: as §1

rape = assay: Test B pre/postemergence rape; assay type: in vivo, Brassica napus
In short: as §1

cocklebur = assay: Test B pre/postemergence cocklebur; assay type: in vivo, Xanthium strumarium
In short: as §1

[1] = Postemergence, Rate 62 g/ha, scale 0 to 10, 0 is no effect, 10 is complete control
[2] = Postemergence, Rate 250 g/ha, scale 0 to 10, 0 no effect, 10 complete control
[3] = Preemergence, Rate 62 g/ha, scale 0 to 10 (0 no effect, 10 complete control)
[4] = Preemergence, Rate 125 g/ha, scale 0 to 10 (0 no effect, 10 complete control)
[5] = Preemergence, Rate 250 g/ha, scale of 0 to 10 where 0 is no effect and 10 is complete control
[6] = Preemergence, Rate 500 g/ha, scale 0 (no effect) to 10 (complete control)
[7] = Rate 125 g/ha, Postemergence, scale 0 to 10, 0 no effect, 10 complete control
[8] = Rate 500 g/ha, Postemergence, scale 0 to 10, 0 no effect, 10 complete control
[9] = Rate 31 g/ha, Postemergence section (flood test species), scale 0 to 10
[10] = Rate 125 g/ha, Postemergence section (flood test species), scale 0 to 10, 0 no effect, 10 complete control
[11] = Rate 250 g/ha, headed Pre-emergence (flood test species), scale 0 to 10 (0 no effect, 10 complete control)
[12] = Rate 500 g/ha, headed Pre-emergence (flood test species), scale 0 to 10 (0 no effect, 10 complete control)
[13] = Rate 1000 g/ha, Pre-emergence (as headed), scale 0 to 10
[14] = flood test, listed under Postemergence, Rate 250 g/ha, scale 0 to 10, 0 no effect, 10 complete control
[15] = Rate 2000 g/ha, Pre-emergence (as headed), scale 0 to 10

Cc1ccccc1Cn1c(=O)on(C(=O)N(c2ccc(F)cc2F)C(C)C)c1=O [Compound 87]
7: Morningglory plant response rating (morningglory; [2]) | Morningglory plant response rating (morningglory; [7]) | Blackgrass plant response rating (blackgrass; [6])
5: B. signalgrass plant response rating (surinam grass; [6]) | Plant response rating, Blackgrass (blackgrass; [5]) | Redroot pigweed plant response rating (pigweed; [2]) | Rape plant response rating (rape; [6])
0: Corn plant response rating (corn; [1]) | Corn plant response rating (corn; [2]) | Corn plant response rating (corn; [3]) | Plant response rating, Corn (corn; [4]) | Plant response rating, Corn (corn; [5]) | Corn plant response rating (corn; [7]) | Giant foxtail plant response rating (giant foxtail; [1]) | Nutsedge plant response rating (purple nutsedge; [1]) | Nutsedge plant response rating (purple nutsedge; [2]) | Nutsedge plant response rating (purple nutsedge; [3]) | Plant response rating, Nutsedge (purple nutsedge; [4]) | Plant response rating, Nutsedge (purple nutsedge; [5]) | Nutsedge plant response rating (purple nutsedge; [6]) | Nutsedge plant response rating (purple nutsedge; [7]) | Nutsedge plant response rating (purple nutsedge; [8]) | B. signalgrass plant response rating (surinam grass; [1]) | B. signalgrass plant response rating (surinam grass; [2]) | B. signalgrass plant response rating (surinam grass; [3]) | B. signalgrass plant response rating (surinam grass; [7]) | Barnyardgrass plant response rating (bamyardgrass; [1]) | Barnyardgrass plant response rating (bamyardgrass; [9]) | Barnyardgrass plant response rating (bamyardgrass; [10]) | Barnyardgrass plant response rating (bamyardgrass; [11]) | Plant response rating, Barnyardgrass (bamyardgrass; [12]) | Barnyardgrass plant response rating (bamyardgrass; [13]) | Barnyardgrass plant response rating (bamyardgrass; Rate 2000 g/ha, Pre-emergence (as headed), scale 0 to 10, 0 no effect, 10 complete control) | Barnyardgrass plant response rating (bamyardgrass; [14]) | Sugarbeets plant response rating (sugar beet; [1]) | Sugarbeets plant response rating (sugar beet; [3]) | Plant response rating, Sugarbeets (sugar beet; [4]) | Ducksalad plant response rating (duck salad; [1]) | Ducksalad plant response rating (duck salad; [9]) | Ducksalad plant response rating (duck salad; [10]) | Ducksalad plant response rating (duck salad; [11]) | Plant response rating, Ducksalad (duck salad; [12]) | Ducksalad plant response rating (duck salad; [13]) | Ducksalad plant response rating (duck salad; [15]) | Ducksalad plant response rating (duck salad; [14]) | Morningglory plant response rating (morningglory; [3]) | Plant response rating, Morningglory (morningglory; [4]) | Plant response rating, Morningglory (morningglory; [5]) | Morningglory plant response rating (morningglory; [6]) | Velvetleaf plant response rating (velvetleaf; [1]) | Velvetleaf plant response rating (velvetleaf; [2]) | Velvetleaf plant response rating (velvetleaf; [3]) | Plant response rating, Velvetleaf (velvetleaf; [4]) | Velvetleaf plant response rating (velvetleaf; [6]) | Velvetleaf plant response rating (velvetleaf; [7]) | Bedstraw plant response rating (bedstraw; [3]) | Plant response rating, Bedstraw (bedstraw; [4]) | Plant response rating, Bedstraw (bedstraw; [5]) | Rice plant response rating (rice; [1]) | Rice plant response rating (rice; [9]) | Rice plant response rating (rice; [10]) | Rice plant response rating (rice; [11]) | Plant response rating, Rice (rice; [12]) | Rice plant response rating (rice; [13]) | Rice plant response rating (rice; [15]) | Rice plant response rating (rice; [14]) | Blackgrass plant response rating (blackgrass; [1]) | Blackgrass plant response rating (blackgrass; [7]) | Redroot pigweed plant response rating (pigweed; [1]) | Redroot pigweed plant response rating (pigweed; [7]) | Rape plant response rating (rape; [1]) | Rape plant response rating (rape; [3]) | Plant response rating, Rape (rape; [4]) | Plant response rating, Rape (rape; [5]) | Rape plant response rating (rape; [7]) | Cocklebur plant response rating (cocklebur; [1]) | Cocklebur plant response rating (cocklebur; [3]) | Plant response rating, Cocklebur (cocklebur; [4]) | Plant response rating, Cocklebur (cocklebur; [5]) | Cocklebur plant response rating (cocklebur; [6])
9: Plant response rating, Giant foxtail (giant foxtail; [4]) | Sugarbeets plant response rating (sugar beet; [6]) | Morningglory plant response rating (morningglory; [8])
4: Plant response rating, B. signalgrass (surinam grass; [5]) | Morningglory plant response rating (morningglory; [1]) | Bedstraw plant response rating (bedstraw; [7]) | Blackgrass plant response rating (blackgrass; [8]) | Redroot pigweed plant response rating (pigweed; [3]) | Plant response rating, Redroot pigweed (pigweed; [4])
3: Giant foxtail plant response rating (giant foxtail; [2]) | Sugarbeets plant response rating (sugar beet; [2]) | Plant response rating, Sugarbeets (sugar beet; [5]) | Sugarbeets plant response rating (sugar beet; [7]) | Plant response rating, Velvetleaf (velvetleaf; [5]) | Bedstraw plant response rating (bedstraw; [6]) | Plant response rating, Blackgrass (blackgrass; [4]) | Rape plant response rating (rape; [8])
2: Corn plant response rating (corn; [6]) | Corn plant response rating (corn; [8]) | Giant foxtail plant response rating (giant foxtail; [7]) | Plant response rating, B. signalgrass (surinam grass; [4]) | B. signalgrass plant response rating (surinam grass; Rate 500 g/ha, Postemergence, scale of 0 to 10 where 0 is no effect and 10 is complete control) | Bedstraw plant response rating (bedstraw; [1]) | Blackgrass plant response rating (blackgrass; [3]) | Redroot pigweed plant response rating (pigweed; [8]) | Rape plant response rating (rape; [2]) | Cocklebur plant response rating (cocklebur; [2]) | Cocklebur plant response rating (cocklebur; [8])
8: Giant foxtail plant response rating (giant foxtail; [3]) | Sugarbeets plant response rating (sugar beet; [8]) | Bedstraw plant response rating (bedstraw; [8]) | Plant response rating, Redroot pigweed (pigweed; [5])
6: Giant foxtail plant response rating (giant foxtail; [8]) | Bedstraw plant response rating (bedstraw; [2])
10: Plant response rating, Giant foxtail (giant foxtail; [5]) | Giant foxtail plant response rating (giant foxtail; [6]) | Redroot pigweed plant response rating (pigweed; [6])
1: Velvetleaf plant response rating (velvetleaf; [8]) | Blackgrass plant response rating (blackgrass; [2]) | Cocklebur plant response rating (cocklebur; [7])
